We go through two compounds from US6437138B1, “3-pyridyloxymethyl heterocyclic ether compounds useful in controlling chemical synaptic transmission” (priority 1996, dated 2002).

In data set [1] the target is neuronal nicotinic cholinergic channel receptors (Rattus norvegicus, UniProt P09483+P12390). The settings on record: displacement of [3H]-cytisine (1.25 nM), whole rat brain membranes; Ki from IC50 by Cheng and Prusoff correction; read-out: Binding Ki. The method, then: A. Protocol For Determination of Nicotinic Cholinergic Channel Receptor Binding Potencies of Ligands
Sequence of neuronal nicotinic cholinergic channel receptors (P09483 31-630): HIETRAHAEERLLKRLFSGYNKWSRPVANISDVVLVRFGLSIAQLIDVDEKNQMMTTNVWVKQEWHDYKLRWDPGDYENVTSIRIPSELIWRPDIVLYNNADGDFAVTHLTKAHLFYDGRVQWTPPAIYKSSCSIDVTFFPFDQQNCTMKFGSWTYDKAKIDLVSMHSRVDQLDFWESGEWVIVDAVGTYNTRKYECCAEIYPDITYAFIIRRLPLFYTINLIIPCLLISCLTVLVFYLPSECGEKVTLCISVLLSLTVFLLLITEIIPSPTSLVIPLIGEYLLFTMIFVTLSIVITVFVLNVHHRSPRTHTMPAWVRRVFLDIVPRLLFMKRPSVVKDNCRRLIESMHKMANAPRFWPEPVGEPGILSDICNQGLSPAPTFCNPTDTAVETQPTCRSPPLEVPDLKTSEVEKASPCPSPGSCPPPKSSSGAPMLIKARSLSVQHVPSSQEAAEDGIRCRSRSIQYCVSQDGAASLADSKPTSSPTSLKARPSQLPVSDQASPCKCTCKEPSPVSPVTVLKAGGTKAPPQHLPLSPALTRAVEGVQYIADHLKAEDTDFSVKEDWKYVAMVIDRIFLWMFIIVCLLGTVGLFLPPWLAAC
Sequence of neuronal nicotinic cholinergic channel receptors (P12390 25-500): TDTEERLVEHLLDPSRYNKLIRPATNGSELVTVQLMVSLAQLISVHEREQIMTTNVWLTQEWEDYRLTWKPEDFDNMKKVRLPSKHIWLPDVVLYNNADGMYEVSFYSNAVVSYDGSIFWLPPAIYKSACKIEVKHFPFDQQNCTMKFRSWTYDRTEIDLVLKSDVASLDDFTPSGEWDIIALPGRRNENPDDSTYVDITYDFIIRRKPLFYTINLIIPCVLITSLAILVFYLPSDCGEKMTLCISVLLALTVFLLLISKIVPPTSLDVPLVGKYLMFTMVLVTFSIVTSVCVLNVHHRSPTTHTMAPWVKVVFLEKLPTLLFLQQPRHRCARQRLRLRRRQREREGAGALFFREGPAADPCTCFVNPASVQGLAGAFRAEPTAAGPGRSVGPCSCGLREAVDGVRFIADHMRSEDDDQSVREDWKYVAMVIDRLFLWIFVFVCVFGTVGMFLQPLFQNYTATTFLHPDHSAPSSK
Binding of [^3H]-cytisine ([^3H]-CYT) to nicotinic receptors was accomplished using crude synaptic membrane preparations from whole rat brain (Pabreza et al., Molecular Pharmacol, 1990, 39:9). Washed membranes were stored at −80° C. prior to use. Frozen aliquots were slowly thawed and resuspended in 20 volumes of buffer (containing: 120 mM NaCl, 5 mM KCl, 2 mM MgCl2, 2 mM CaCl2 and 50 mM Tris-Cl, pH 7.4 @ 4° C.). After centrifuging at 20,000×g for 15 minutes, the pellets were resuspended in 30 volumes of buffer. Homogenate (containing 125-150 μg protein) was added to triplicate tubes containing concentrations of test compound and [^3H]-CYT (1.25 nM) in a final volume of 500 μL. Samples were incubated for 60 minutes at 4° C., then rapidly filtered through Whatman GF/B filters presoaked in 0.5% polyethyleneimine using 3×4 mL of ice-cold buffer. The filters are counted in 4 mL of Ecolume® (ICN). Nonspecific binding was determined in the presence of […] (−)-nicotine and values were expressed as a percentage of total binding.

The target in data set [2] is neuronal nicotinic cholinergic channels in IMR-32 cells (Homo sapiens, UniProt P30926+P32297). The experiment in a line: 86Rb+ efflux in IMR-32 cells (activation, or inhibition of efflux elicited by (S)-nicotine). The data set is classed as cell-based. To be noted: IMR-32, inhibition of the efflux elicited by 100 μM (S)-nicotine; for inhibition at 1 µM: single dose 1 μM. Summed up:
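IMR-32 human neuroblastoma cells loaded overnight at 37° C with 86Rb+ (2 μCi/ml) in serum-free DMEM. Agonism given as EC50 and maximal response relative to 100 μM (S)-nicotine. Antagonism as inhibition of 100 μM (S)-nicotine-evoked efflux, either % at 1 or 10 μM or IC50.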

As to `Cc1ccc(-c2cncc(OC[C@@H]3CCCN3C)c2)cc1.Cl.Cl` [Example 41, 5-(4-Methylphenyl)-3-(1-methyl-2-(S)-pyrrolidinylmethoxy)pyridine Dihydrochloride], the melting point lay in the range of 204 to 206 °C. The Ki in data set [1] worked out at 0.13 nM. This compound also yielded an inhibition at 1 µM in data set [2] of 41%. The compound further returned an inhibition at 10 µM in data set [2] (single dose 10 μM) of 100%.
Consider `CN1CCC[C@H]1COc1cncc(-c2cccc(N)c2)c1.Cl.Cl` [Example 43, 5-(3-Aminophenyl)-3-(1-methyl-2-(S)-pyrrolidinylmethoxy)pyridine Dihydrochloride], for which the melting point is 80 to 82 °C. In addition, the inhibitory constant (Ki) in data set [1] was 0.43 nM. The compound also showed an inhibition at 1 µM in data set [2] of 36%.
